Experimental data reported in patent US20240174690A1, “ANNULATED 2-AMINO-3-CYANO THIOPHENES AND DERIVATIVES FOR THE TREATMENT OF CANCER” (BOEHRINGER INGELHEIM INTERNATIONAL GMBH, priority 2021, published 2024).
Values after ≈ are worked out from the molar mass of the structure shown. Where two headings read alike, the source gives them in different places.

What was measured:
[1] = tested on: KRAS G12V-dependent Ba/F3 cells; test: Ba/F3 proliferation assay, KRAS G12V; assay type: cell-based; settings: Mus musculus, BaF3, 72 h, AlamarBlue;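 also: proliferation IC50 in KRAS G12V-dependent Ba/F3 cells read by AlamarBlue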
How it was run: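 Ba/F3 cells were retrovirally transduced with KRAS G12 mutant vectors, puromycin-selected (1 μg/mL) and grown without IL-3 to make them KRAS-dependent. Compounds were tested in technical duplicates, viability was read by AlamarBlue fluorescence, and values came from curve fitting.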

[2] = tested on: NCI-H358 cells; test: NCI-H358 CTG proliferation assay (120 h) (NSCLC, G12C); assay type: cell-based, human; settings: Homo sapiens
How it was run: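 NCI-H358 cells (KRAS G12C) were seeded at 2000/well (assay 1) or 200/well (assay 2) in RPMI-1640 + 10% FCS and dosed with a logarithmic series, DMSO-normalized. After 120 h, viability was read by CellTiter-Glo luminescence as percent of DMSO control, with a T0 read at dosing. IC50 came from a four-parameter fit.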

[3] = Plasma protein binding assay (PPB), equilibrium dialysis, 10% FCS in PBS; assay type: in vitro ADME; settings: bovine, read-out: PPB 10% FCS (% fu)
How it was run: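 Equilibrium dialysis (5-10 kg/mol cut-off membrane) of 1-10 μmol/L test compound in 10% FCS/PBS against PBS with or without dextran, 3-5 h at 37° C. Compound in each chamber quantified by LC-MS after protein precipitation; fu calculated from Cserum and Cbuffer.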

[4] = Solubility measurement (DMSO solution method), McIlvaine buffer pH 4.5 or 6.8; assay type: physicochemical; settings: aqueous buffer, kinetic from dmso stock, DMSO stock diluted to 250 μM, 24 h shaking at ambient temperature
How it was run: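 DMSO stock diluted into McIlvaine buffer, pH 4.5 or 6.8, to 250 µM final, shaken 24 h at ambient temperature. Precipitate removed by filtration; filtrate quantified by LC-UV against a fully dissolved reference in acetonitrile/water 1:1.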

[5] = tested on: NCI-H2122 cells; test: NCI-H2122 CTG proliferation assay (120 h) (NSCLC, G12C); assay type: cell-based; settings: Homo sapiens
How it was run: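 NCI-H2122 cells (KRAS G12C NSCLC), 200 per well in RPMI with 10% FCS, were dosed with compound on day 1 and incubated 120 h at 37 °C. Viability was read by CellTiter-Glo luminescence as percent of DMSO control, and IC50 was fitted with a four-parameter model.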

[6] = tested on: SK-CO-1 cells; test: SK-CO-1 CTG proliferation assay (120 h) (CRC, G12V); assay type: cell-based; settings: Homo sapiens; SK-CO-1 cells (CRC, G12V), CTG 120 h
How it was run: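 SK-CO-1 colorectal cells (KRAS G12V), 500 per well in EMEM + 10% FCS, dosed with compound the day after seeding and grown 120 h at 37 °C. Viability by CellTiter-Glo luminescence as percent of DMSO control; IC50 from four-parameter non-linear regression.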

[7] = assay 2, CTG, read-out: H358 (assay 2) IC50
[8] = McIlvaine buffer pH 4.5, read-out: solubility pH 4.5
[9] = McIlvaine buffer pH 6.8, read-out: solubility pH 6.8
[10] = assay 1, CTG, read-out: H358 (assay 1) IC50

IC50 [1] [nM] | IC50 [2, 7] [nM] | fraction unbound [3] | solubility at 24 h [4, 8] [µg/mL] | solubility at 24 h [4, 9] [µg/mL] | IC50 [5] [nM] | IC50 [6] [nM] | IC50 [2, 10] [nM] | Structure (SMILES)
9 | 562 | 0.31 | > 124 | 2 (≈ 3.41 µM) | 904 | 90 | – | CO[C@@H]1C[C@@H]([C@H](C)Oc2cc(-n3ccnc3)nc(-c3noc4c3CCC[C@@]43CCCc4sc(N)c(C#N)c43)n2)N(C)C1 [II-58]
316 | – | 0.94 | > 147 | > 144 | 3380 | 2080 | 809 | C[C@H](Oc1cc(N2C[C@H](C)N[C@@H](C)C2)nc(-c2onc3c2CCC[C@@]32CCCc3sc(N)c(C#N)c32)n1)[C@@H]1CCCN1C [I-6]
4 | 139 | 0.11 | 22 (≈ 38.3 µM) | < 1 | 858 | 51 | – | C[C@H](Oc1cc(-c2cnsc2)nc(-c2noc3c2CCC[C@@]32CCCc3sc(N)c(C#N)c32)n1)[C@@H]1CCCN1C [II-111]
38 | 1420 | 0.26 | 111 (≈ 184 µM) | 41 (≈ 68.1 µM) | 2340 | 192 | – | C[C@H](Oc1cc(N2CCOC3(CC3)C2)nc(-c2noc3c2CCC[C@@]32CCCc3sc(N)c(C#N)c32)n1)[C@@H]1CCCN1C [II-61]
13 | 1200 | 0.52 | 114 (≈ 186 µM) | 84 (≈ 137 µM) | 1680 | 32 | – | CC(=O)N1CC=C(c2cc(O[C@@H](C)[C@@H]3CCCN3C)nc(-c3noc4c3CCC[C@@]43CCCc4sc(N)c(C#N)c43)n2)CC1 [II-81]
26 | 295 | 0.08 | 32 (≈ 53.5 µM) | < 1 | 1010 | 3860 | – | C[C@H](Oc1cc(-n2cc(C3CC3)nn2)nc(-c2noc3c2CCC[C@@]32CCCc3sc(N)c(C#N)c32)n1)[C@@H]1CCCN1C [II-118]
49 | 66 | 0.06 | < 1 | < 1 | 3390 | 134 | – | C[C@H](Oc1cc(N2Cc3cnn(C)c3C2)nc(-c2noc3c2CCC[C@@]32CCCc3sc(N)c(C#N)c32)n1)[C@@H]1CCCN1C [II-63]
6 | 46 | 0.07 | 3 (≈ 4.94 µM) | < 1 | 847 | 31 | – | C[C@H](Oc1cc(-n2cncc3ccnc2-3)nc(-c2noc3c2CCC[C@@]32CCCc3sc(N)c(C#N)c32)n1)[C@@H]1CCCN1C [II-105]
27 | 400 | 0.53 | > 134 | > 121 | 1420 | 341 | – | C[C@H](Oc1cc(C2COCCO2)nc(-c2noc3c2CCC[C@@]32CCCc3sc(N)c(C#N)c32)n1)[C@@H]1CCCN1C (stereo partly drawn) [II-95]
157 | 908 | 0.3 | > 134 | > 122 | 1770 | 464 | 298 | C[C@H](Oc1cc(N2CCNC3(CC3)C2)nc(-c2noc3c2CCC[C@@]32CCCc3sc(N)c(C#N)c32)n1)[C@@H]1CCCN1C [II-54]
24 | 439 | 0.11 | < 1 | < 1 | 878 | 96 | – | C[C@H](Oc1cc(-n2cc(-c3cccnc3)nn2)nc(-c2noc3c2CCC[C@@]32CCCc3sc(N)c(C#N)c32)n1)[C@@H]1CCCN1C [II-123]
166 | 173 | 0.48 | > 144 | > 146 | 3190 | 554 | 587 | C[C@H](Oc1cc(N2C[C@H](C)N[C@@H](C)C2)nc(-c2noc3c2CCC[C@@]32CCCc3sc(N)c(C#N)c32)n1)[C@@H]1CCCN1C [II-56]
23 | 111 | 0.09 | 79 (≈ 135 µM) | 5 (≈ 8.55 µM) | 1230 | 5570 | – | Cc1cn(C)nc1-c1cc(O[C@@H](C)[C@@H]2CCCN2C)nc(-c2noc3c2CCC[C@@]32CCCc3sc(N)c(C#N)c32)n1 [II-68]
14 | 170 | 0.49 | 41 (≈ 72.2 µM) | 3 (≈ 5.28 µM) | 2140 | 84 | – | C[C@H](Oc1cc(-c2ccncc2)nc(-c2noc3c2CCC[C@@]32CCCc3sc(N)c(C#N)c32)n1)[C@@H]1CCCN1C [II-78]
29 | 586 | 0.41 | > 117 | 112 (≈ 195 µM) | 5010 | 76 | – | C[C@H](Oc1cc(N2CC[C@@H](O)C2)nc(-c2noc3c2CCC[C@@]32CCCc3sc(N)c(C#N)c32)n1)[C@@H]1CCCN1C [II-66]
5 | 98 | 0.25 | 107 (≈ 187 µM) | 2 (≈ 3.5 µM) | 307 | 67 | – | C[C@H](Oc1cc(-c2ccn(C)n2)nc(-c2noc3c2CCC[C@@]32CCCc3sc(N)c(C#N)c32)n1)[C@@H]1CCCN1C [II-96]
